Reference: PubChem BioAssay (NCI)
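Grown in 96-well plates, cells were treated for 48 hours with each compound at five concentrations. Insufficient inhibition: endpoint recorded as highest concentration tested. GI50 = concentration required for 50% inhibition of growth. TGI: total growth inhibition.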

Legend:
Assay in all cases: NCI tumour cell line growth inhibition, 48 h
OVCAR-5 ovarian = test system: OVCAR-5 ovarian
SR leukemia = test system: SR leukemia
OVCAR-8 ovarian = test system: OVCAR-8 ovarian
SNB-19 CNS = test system: SNB-19 CNS
COLO 205 colon = test system: COLO 205 colon
U251 CNS = test system: U251 CNS
SN12C renal = test system: SN12C renal
SNB-75 CNS = test system: SNB-75 CNS
A549 NSCLC = test system: A549 NSCLC
CCRF-CEM leukemia = test system: CCRF-CEM leukemia
NCI-H460 lung = test system: NCI-H460 lung
M14 melanoma = test system: M14 melanoma
HS 578T breast = test system: HS 578T breast
MALME-3M melanoma = test system: MALME-3M melanoma
SF-268 CNS = test system: SF-268 CNS
HCC-2998 colon = test system: HCC-2998 colon
PC-3 prostate = test system: PC-3 prostate
SK-MEL-5 melanoma = test system: SK-MEL-5 melanoma
NCI-H522 lung = test system: NCI-H522 lung
HCT-116 colon = test system: HCT-116 colon
CAKI-1 renal = test system: CAKI-1 renal
OVCAR-4 ovarian = test system: OVCAR-4 ovarian
SK-MEL-2 melanoma = test system: SK-MEL-2 melanoma
ACHN renal = test system: ACHN renal
MOLT-4 leukemia = test system: MOLT-4 leukemia
K-562 leukemia = test system: K-562 leukemia
IGROV1 ovarian = test system: IGROV1 ovarian
HOP-92 NSCLC = test system: HOP-92 NSCLC
SF-539 CNS = test system: SF-539 CNS
NCI-H226 lung = test system: NCI-H226 lung
TK-10 renal = test system: TK-10 renal
HCT-15 colon = test system: HCT-15 colon
SK-MEL-28 melanoma = test system: SK-MEL-28 melanoma
KM12 colon = test system: KM12 colon
T-47D breast = test system: T-47D breast
MDA-MB-435 = test system: MDA-MB-435
DU-145 prostate = test system: DU-145 prostate
OVCAR-3 ovarian = test system: OVCAR-3 ovarian
UACC-62 melanoma = test system: UACC-62 melanoma
NCI-H23 lung = test system: NCI-H23 lung
MCF7 breast = test system: MCF7 breast
RXF 393 renal = test system: RXF 393 renal
EKVX NSCLC = test system: EKVX NSCLC
SK-OV-3 ovarian = test system: SK-OV-3 ovarian
HL-60(TB) leukemia = test system: HL-60(TB) leukemia
RPMI-8226 leukemia = test system: RPMI-8226 leukemia
SF-295 CNS = test system: SF-295 CNS
HT29 colon = test system: HT29 colon
UACC-257 melanoma = test system: UACC-257 melanoma
SW-620 colon = test system: SW-620 colon
UO-31 renal = test system: UO-31 renal
786-0 renal = test system: 786-0 renal
BT-549 breast = test system: BT-549 breast
MDA-MB-231 breast = test system: MDA-MB-231 breast
NCI/ADR-RES ovarian = test system: NCI/ADR-RES ovarian

Structure (SMILES): Nc1nc2ccc(Sc3ccc4nc(N)[nH]c(=O)c4c3)cc2c(=O)[nH]1
- TGI (OVCAR-5 ovarian): > 100 µM
- TGI (SR leukemia): > 100 µM
- TGI (OVCAR-8 ovarian): > 100 µM
- TGI (SNB-19 CNS): > 100 µM
- TGI (COLO 205 colon): > 100 µM
- TGI (U251 CNS): > 100 µM
- TGI (SN12C renal): > 100 µM
- TGI (SNB-75 CNS): > 100 µM
- TGI (A549 NSCLC): > 100 µM
- TGI (CCRF-CEM leukemia): > 100 µM
- TGI (NCI-H460 lung): > 100 µM
- TGI (M14 melanoma): > 100 µM
- TGI (HS 578T breast): > 100 µM
- TGI (MALME-3M melanoma): > 100 µM
- TGI (SF-268 CNS): > 100 µM
- TGI (HCC-2998 colon): > 100 µM
- TGI (PC-3 prostate): > 100 µM
- TGI (SK-MEL-5 melanoma): > 100 µM
- TGI (NCI-H522 lung): > 100 µM
- TGI (HCT-116 colon): > 100 µM
- TGI (CAKI-1 renal): > 100 µM
- TGI (OVCAR-4 ovarian): > 100 µM
- TGI (SK-MEL-2 melanoma): > 100 µM
- TGI (ACHN renal): > 100 µM
- TGI (MOLT-4 leukemia): > 100 µM
- TGI (K-562 leukemia): > 100 µM
- TGI (IGROV1 ovarian): > 100 µM
- TGI (HOP-92 NSCLC): > 100 µM
- TGI (SF-539 CNS): > 100 µM
- TGI (NCI-H226 lung): 81.9 µM
- TGI (TK-10 renal): > 100 µM
- TGI (HCT-15 colon): > 100 µM
- TGI (SK-MEL-28 melanoma): > 100 µM
- TGI (KM12 colon): > 100 µM
- TGI (T-47D breast): > 100 µM
- TGI (MDA-MB-435): > 100 µM
- TGI (DU-145 prostate): > 100 µM
- TGI (OVCAR-3 ovarian): > 100 µM
- TGI (UACC-62 melanoma): > 100 µM
- TGI (NCI-H23 lung): > 100 µM
- TGI (MCF7 breast): > 100 µM
- TGI (RXF 393 renal): > 100 µM
- TGI (EKVX NSCLC): > 100 µM
- TGI (SK-OV-3 ovarian): > 100 µM
- TGI (HL-60(TB) leukemia): > 100 µM
- TGI (RPMI-8226 leukemia): > 100 µM
- TGI (SF-295 CNS): > 100 µM
- TGI (HT29 colon): > 100 µM
- TGI (UACC-257 melanoma): > 100 µM
- TGI (SW-620 colon): > 100 µM
- TGI (UO-31 renal): > 100 µM
- TGI (786-0 renal): > 100 µM
- TGI (BT-549 breast): > 100 µM
- TGI (MDA-MB-231 breast): > 100 µM
- TGI (NCI/ADR-RES ovarian): > 100 µM

Structure (SMILES): CCCCc1n(Cc2ccc3ccccc3c2)c2ccccc2[n+]1Cc1ccc2ccccc2c1
- GI50 (OVCAR-5 ovarian): 0.521 µM
- TGI (OVCAR-5 ovarian): 1.9 µM
- GI50 (ACHN renal): 1.4 µM
- TGI (ACHN renal): 2.82 µM
- GI50 (UACC-257 melanoma): 0.925 µM
- TGI (UACC-257 melanoma): 2.23 µM
